The values below come from patent publication US9706776B2, “Pesticidally active substituted 5,5-bicyclic heterocycles with sulphur containing substituents” (Syngenta Participations AG, priority 2013, dated 2017).

Data set [1] has as its system Myzus persicae (green peach aphid). Kind of data set: Example B6: Myzus persicae feeding activity sachet test, mixed population. Type of data set: in vivo. As to conditions: 120 h, 5 days after infestation. An excerpt:
Example B6: Activity Against Myzus persicae (Green Peach Aphid)
(Feeding Activity Sachet Test), Mixed Population
Test compounds were applied by pipette into 24 well plates and mixed with Sucrose solution. The plates were closed with a stretched Parafilm. A plastic stencil with 24 holes is placed onto the plate and infested pea seedlings were placed directly on the Parafilm. The infested plate is closed with a gel blotting paper and another plastic stencil and then turned upside down. 5 days after infestation the samples were checked on mortality. Application rate: 12.5 ppm.

The test system of data set [2] is Spodoptera littoralis (Egyptian cotton leaf worm). As to the kind of experiment: Example B1: Spodoptera littoralis larvicide, feeding/residual contact, preventive (cotton leaf discs). The format is in vivo. As to conditions: foliar, 72 h, L1 larvae, 3 days after treatment, read-out: activity (mortality, repellent effect, feeding behaviour, growth regulation). An excerpt: Example B1: Activity Against Spodoptera littoralis (Egyptian Cotton Leaf Worm)
(§1) (Larvicide, Feeding/Residual Contact Activity, Preventive)
Cotton leaf discs were placed on agar in a 24-well microtiter plate and sprayed with test solutions. After drying, the leaf discs were infested with 5 L1 larvae. The samples were checked for mortality, repellent effect, feeding behaviour, and growth regulation 3 days after treatment (DAT).

The subject of data set [3] is Myzus persicae (green peach aphid). As to the kind of experiment: Example B5: Myzus persicae feeding/residual contact, preventive, mixed population (sunflower leaf discs). The format is in vivo. As to conditions: foliar, 144 h, 6 DAT, read-out: activity (mortality and special effects). The protocol: Example B5: Activity Against Myzus persicae (Green Peach Aphid)
(Feeding/Residual Contact Activity, Preventive), Mixed Population
Sunflower leaf discs were placed on agar in a 24-well microtiter plate and sprayed with test solutions. After drying, the leaf discs were infested with an aphid population of mixed ages. After an incubation period of 6 DAT, samples were checked for mortality and special effects (e.g. phytotoxicity).

Data set [4] shares this test system. As to the kind of experiment: Example B7: Myzus persicae systemic/feeding activity, curative, mixed population (pea seedlings). Type of data set: in vivo. As to conditions: 144 h, systemic, 6 days after introduction, read-out: activity (mortality and special effects on the plant). The source says:
Example B7: Activity Against Myzus persicae (Green Peach Aphid)
(Systemic/Feeding Activity, Curative), Mixed Population
Roots of pea seedlings, infested with an aphid population of mixed ages, were placed directly in the test solutions. 6 days after introduction, samples were checked for mortality and special effects on the plant.

Data set [5] relates to Spodoptera littoralis (Egyptian cotton leaf worm). Kind of data set: Example B2: Spodoptera littoralis systemic activity (lettuce on agar). The format is in vivo. As to conditions: 120 h, 5 days after infestation, read-out: activity (mortality, repellent effect, feeding behavior, growth regulation). The source says:
Example B2: Activity Against Spodoptera littoralis (Egyptian Cotton Leaf Worm)
Test compounds were applied by pipette into 24 well plates and mixed with agar. Lettuce seeds were placed on the agar and the multi well plate is closed by another plate which contains also agar. After 7 days the roots have absorbed the compound and the lettuce has grown into the lid plate. The lettuce leaves were now cut off into the lid plate. Spodoptera eggs were pipetted through a plastic stencil on a humid gel blotting paper and the plate closed with it. The samples are checked for mortality, repellent effect, feeding behavior, and growth regulation 5 days after infestation.

Data set [6] concerns Anopheles stephensi (Indian malaria mosquito). Kind of data set: Example B10: Anopheles stephensi adult females on treated tissue culture plates. The format is in vivo. As to conditions: application rate 200 ppm in ethanol; after 48 h. As for the experimental part:
Example B10: Activity Against Anopheles stephensi (Indian Malaria Mosquito)
Test solutions, at an application rate of 200 ppm in ethanol, were applied to 12-well tissue culture plates. Once the deposits were dry, five, two to five day old adult female Anopheles stephensi were added to each well, and sustained with a 10% sucrose solution in a cotton wool plug. Assessment of knockdown was made one hour after introduction, and mortality was assessed at 24 and 48 hours after introduction.

Data set [7] relates to Plutella xylostella (diamond back moth). As to the kind of experiment: Example B3: Plutella xylostella larvicide, feeding/residual contact, preventive (artificial diet). The format is in vivo. As to conditions: 120 h, L2 larvae, incubation 5 days, read-out: activity (larval mortality, antifeedant, growth regulation). As for the experimental part: Example B3: Activity Against Plutella xylostella (Diamond Back Moth)
as §1
24-well microtiter plate (MTP) with artificial diet was treated with test solutions by pipetting. After drying, the MTPs were infested with L2 larvae (10-15 per well). After an incubation period of 5 days, samples were checked for larval mortality, antifeedant and growth regulation.

Data set [8] concerns Diabrotica balteata (corn root worm). As to the kind of experiment: Example B4: Diabrotica balteata larvae L2 on maize sprouts, feeding/contact, preventative. Type of data set: in vivo. As to conditions: 120 h, incubation 5 days, read-out: activity (larval mortality, growth regulation). As for the experimental part: Example B4: Activity Against Diabrotica Balteata (Corn Root Worm)
(Larvae L2 on Maize Sprouts, Feeding/Contact, Preventative)
Maize sprouts, placed on an agar layer in 24 well micro titer plates were treated with test solutions by spraying. After drying, the MTPs were infested with L2 larvae (6-10 per well). After an incubation period of 5 days, samples were checked for larval mortality and growth regulation.

The subject of data set [9] is Euschistus heros (neotropical brown stink bug). Kind of data set: Example B8: Euschistus heros on sprayed soybean leaf. The format is in vivo. As to conditions: 120 h, N-2 nymphs, 5 days after infestation. The protocol: Example B8: Activity Against Euschistus heros (Neotropical Brown Stink Bug)
Soybean leaf on agar in 24-well microtiter plates were sprayed with aqueous test solutions prepared from 10′000 ppm DMSO stock solutions. After drying the leaf were infested with N-2 nymphs. The samples were assessed for mortality 5 days after infestation.

Take `CCS(=O)(=O)c1cccnc1-c1cn2nc(C(F)(F)F)sc2n1` [Compound P2, 6-(3-ethylsulfonyl-2-pyridyl)-2-(trifluoromethyl)imidazo[2,1-b][1,3,4]thiadiazole]: the mortality at 12.5 ppm in data set [1] and in [5] was at least 80% each time. Further, the mortality at 400 ppm in data set [2], in data set [3], in data set [7] and in data set [8] was over 80% in each case. The mortality (in general, the percentage killed) at 24 ppm in data set [4] is at least 80%. The “control of Anopheles stephensi” value in [6] is “at least 80%”.
`CCS(=O)(=O)c1cc(C(F)(F)F)cnc1-c1nc2sc(C(F)(F)F)nn2c1C` [Compound P3, 6-[3-ethylsulfonyl-5-(trifluoromethyl)-2-pyridyl]-5-methyl-2-(trifluoromethyl)imidazo[2,1-b][1,3,4]thiadiazole] displayed a mortality at 12.5 ppm in [1] of at least 80%. The mortality at 400 ppm in data set [2], in [3], in [7] and in [8] was over 80% throughout.
For the compound `CCS(=O)(=O)c1cc(C(F)(F)F)cnc1-c1cn2nc(C(F)(F)F)sc2n1` [Compound P4], the mortality at 400 ppm in data set [2], in [7] and in data set [8] was over 80% in each case.
For the compound `CCS(=O)(=O)c1cccnc1-c1nc2sc(C(F)(F)F)nn2c1C` [Compound P5], the mortality at 400 ppm in data set [2], in [3] and in data set [7] was over 80% each time. Besides, the mortality at 24 ppm in data set [4] is at least 80%.
For `CCSc1cc(C(F)(F)F)cnc1-c1cn2nc(C(F)(F)C(F)(F)F)sc2n1` [Compound P6], the melting point (in general, the temperature of the solid-liquid transition) lay within 110 to 112 °C.
As for `CC[S+]([O-])c1cc(C(F)(F)F)cnc1-c1cn2nc(C(F)(F)C(F)(F)F)sc2n1` (stereo not shown) [Compound P7], the mortality at 400 ppm in data set [2], in data set [3], in [9], in data set [7] and in data set [8] was over 80% in each case.
Consider `CCS(=O)(=O)c1cc(C(F)(F)F)cnc1-c1cn2nc(C(F)(F)C(F)(F)F)sc2n1` [Compound P8], for which the mortality at 400 ppm in data set [2], in data set [3], in [9], in data set [7] and in [8] was over 80% throughout. Further, the mortality at 12.5 ppm in [5] was at least 80%.
Regarding `CCS(=O)(=O)c1cc(C(F)(F)F)cnc1-c1cn2cc(C(F)(F)F)sc2n1` [Compound P9, 6-[3-ethylsulfonyl-5-(trifluoromethyl)-2-pyridyl]-2-(trifluoromethyl)imidazo[2,1-b]thiazole], the mortality at 400 ppm in data set [2], in data set [3], in data set [7] and in data set [8] was over 80% throughout.
With `CC[S+]([O-])c1cc(C(F)(F)F)cnc1-c1cn2cc(C(F)(F)F)sc2n1` (stereo not shown) [Compound P10], in data set [2], the mortality at 400 ppm is over 80%.
